Reference: patent US11207301B2, “Sphingosine 1 phosphate receptor agonists for neuroprotection” (RECEPTOS LLC, priority 2017, dated 2021)
“Also recorded” adds a separate entry of the source.

Columns and labels:
[1] = biological target: T1, Recombinant human MAO-A (Homo sapiens, UniProt P21397); assay: MAO-A inhibition, conversion of kynuramine to 4-hydroxyquinoline; assay type: biochemical; settings: tested up to 100 μM
T1 construct: purchased Sigma-Aldrich M7316; host or cells: baculovirus infected insect cells
T1 sequence (P21397 1-527): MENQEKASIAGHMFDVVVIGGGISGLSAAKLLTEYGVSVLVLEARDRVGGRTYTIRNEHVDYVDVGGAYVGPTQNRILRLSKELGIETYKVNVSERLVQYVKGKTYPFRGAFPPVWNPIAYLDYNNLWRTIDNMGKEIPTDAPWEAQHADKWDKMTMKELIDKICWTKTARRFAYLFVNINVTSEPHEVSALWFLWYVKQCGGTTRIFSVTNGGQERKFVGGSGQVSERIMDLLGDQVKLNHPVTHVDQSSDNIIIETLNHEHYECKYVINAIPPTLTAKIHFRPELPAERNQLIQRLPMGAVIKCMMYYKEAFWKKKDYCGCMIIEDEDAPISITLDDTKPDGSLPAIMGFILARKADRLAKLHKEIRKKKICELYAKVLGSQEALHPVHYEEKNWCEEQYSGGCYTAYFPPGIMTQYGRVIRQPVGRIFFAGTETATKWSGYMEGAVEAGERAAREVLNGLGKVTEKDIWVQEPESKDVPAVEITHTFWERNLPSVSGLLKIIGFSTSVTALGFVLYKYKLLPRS
Protocol: The effect of a S1P receptoragonist on MAO-B activity can be assessed by measuring the inhibition of conversion of substrate kynuramine to 4-hydroxyquinoline as described in Example 4.
Compound 1 and Compound 2-S were evaluated for their ability to inhibit MAO-A and MAO-B. Inhibition of the conversion of kynuramine, a substrate for MAO-A and MAO-B, to 4-hydroxyquinoline was used to assess the inhibitory potential of Compound 1 and Compound 2-S. Recombinant human MAO-A (product number M7316) and MAO-B (product number M7441) expressed in baculovirus infected insect cells were obtained from Sigma-Aldrich, Saint Louis, Mo. USA were used as a source of purified MAOs.
Recombinant MAO-A (0.01 mg/mL, final concentrations) and MAO-B (0.02 mg/mL, final concentration) were diluted to desired concentrations in 100 mM potassium phosphate buffer (pH 7.4) containing 5 mM MgCl2. The diluted protein fractions were preincubated with various concentrations of each test compound at 37° C. for 2 min. The concentrations used were 100, 33, 10, 3.3, 1.0, 0.33 μM and acetonitrile/DMSO as vehicle control for MAO-A and 1.0, 0.3, 0.1, 0.03, 0.01, 0.003 μM and acetonitrile/DMSO as vehicle control for MAO-B. The reaction was started by addition of kynuramine to the incubation mixture. The final concentration of kynuramine was 40 μM for MAO-A and 25 μM for MAO-B. The total incubation volume was 0.250 mL. […] The reaction product, 4-hydroxyquinoline was analyzed by LC-MS/MS as described below. […]
The gradient system was used to separate the analytes with a flow rate of 0.5 ml/min using mobile phase A, water containing 0.1% formic acid and mobile phase B, acetonitrile containing 0.1% formic acid. […] The analytes were monitored using multiple reaction monitoring and the ion transitions (Q1/Q3) were as follows: 4-hydroxyquinoline 146/104 (collision energy, CE was 27; declustering potential, DP, 50, and IS (acetaminophen), 152/110 (collision energy, CE was 27; declustering potential, DP, 50). All data were analyzed using AB Sciex Analyst v1.6.2 software.

[2] = test system: experimental autoimmune encephalomyelitis (EAE)-induced mouse model of Multiple Sclerosis (MS); assay: Experimental autoimmune encephalomyelitis (EAE)-induced mouse model of multiple sclerosis, oral ozanimod; assay type: in vivo, C57BL/6 mice; settings: EAE mice
From the text: (§1) In one embodiment, the S1P receptor agonist provides therapeutic benefit in the context of relapsing-remitting multiple sclerosis (RRMS), by down-modulating S1P receptor and resulting in retention of autoreactive lymphocytes in secondary lymphoid organs. As set forth in greater detail below, ozanimod activity on immune cell subsets was examined in the experimental autoimmune encephalomyelitis (EAE)-induced mouse model of Multiple Sclerosis (MS). C57BL/6 mice were immunized with MOG35-55 and pertussis toxin to initiate immune cell activation, migration to the spinal cord and neurodegeneration. Animals were treated with oral ozanimod either semi-therapeutically or therapeutically to investigate the impact on peripheral immune cell expansion and migration into the spinal cord. The plasma biomarker of CNS injury, neurofilament light (NfL), was measured at study termination.
as §1, with “Ozanimod” for “In one embodiment, the S1P receptor agonist provides therapeutic benefit in the context of relapsing-remitting multiple sclerosis (RRMS), by down-modulating S1P receptor and resulting in retention of autoreactive lymphocytes in secondary lymphoid organs. As set forth in greater detail below, ozanimod”

Compound | MAO-A inhibition (in words) [1] | spinal cord inflammation and demyelination [2] | reduction of microglia expansion in the spinal cord ([2]; day 18-21 post-immunization) [%] | decrease of monocyte infiltration into the spinal cord ([2]; oral ozanimod) [%] | diminished Th1 and Th17 cell expansion in the periphery ([2]; oral ozanimod) | reduction of the number of Th1 and Th17 cells in the spinal cord ([2]; oral ozanimod) [%] | plasma biomarker of CNS injury NfL ([2]; therapeutic dosing, at study termination, vehicle 3298±350, p=0.05) [pg/mL]
CC(C)Oc1ccc(-c2nc(-c3cccc4c3CCC4=O)no2)cc1C#N [Compound 1, 2-isopropoxy-5-(3-(1-oxo-2,3-dihydro-1H-inden-4-yl)-1,2,4-oxadiazol-5-yl)benzonitrile] | not an inhibitor; also recorded: does not inhibit | – | – | – | – | – | –
CC(C)Oc1ccc(-c2nc(-c3cccc4c3CC[C@@H]4NCCO)no2)cc1C#N [Ozanimod] | – | reduce spinal cord inflammation and demyelination | 75 | 65 | 60-70% | ≥ 80 | 2209 ± 393
